Legend:
Conditions in all cases: 72 h
HepG2 [1] = experiment: drug sensitivity score (DSS) for viability; higher = more toxic; extreme values may be limits of the assay
Calu-3 [2] = experiment: as above
Caco-2 [3] = experiment: as above
Vero E6 [4] = experiment: as above
U2OS [5] = experiment: as above
HepG2 [6] = experiment: cell viability relative to DMSO; higher = less toxic
Calu-3 [7] = experiment: as above
Caco-2 [8] = experiment: as above
Vero E6 [9] = experiment: as above
U2OS [10] = experiment: as above
HepG2 [11] = experiment: relative viability EC50 (midpoint between 100% and the lowest measured viability); higher = less toxic
Calu-3 [12] = experiment: as above
Caco-2 [13] = experiment: as above
Vero E6 [14] = experiment: as above
U2OS [15] = experiment: as above

Row | Compound | drug sensitivity score (HepG2 [1]) | drug sensitivity score (Calu-3 [2]) | drug sensitivity score (Caco-2 [3]) | drug sensitivity score (Vero E6 [4]) | drug sensitivity score (U2OS [5]) | cell viability (HepG2 [6]; 1 nM) [%] | cell viability (HepG2 [6]; 10 nM) [%] | cell viability (HepG2 [6]; 100 nM) [%] | cell viability (HepG2 [6]; 1000 nM) [%] | cell viability (HepG2 [6]; 10000 nM) [%] | cell viability (Calu-3 [7]; 1 nM) [%] | cell viability (Calu-3 [7]; 10 nM) [%] | cell viability (Calu-3 [7]; 100 nM) [%] | cell viability (Calu-3 [7]; 1000 nM) [%] | cell viability (Calu-3 [7]; 10000 nM) [%] | cell viability (Caco-2 [8]; 1 nM) [%] | cell viability (Caco-2 [8]; 10 nM) [%] | cell viability (Caco-2 [8]; 100 nM) [%] | cell viability (Caco-2 [8]; 1000 nM) [%] | cell viability (Caco-2 [8]; 10000 nM) [%] | cell viability (Vero E6 [9]; 1 nM) [%] | cell viability (Vero E6 [9]; 10 nM) [%] | cell viability (Vero E6 [9]; 100 nM) [%] | cell viability (Vero E6 [9]; 1000 nM) [%] | cell viability (Vero E6 [9]; 10000 nM) [%] | cell viability (U2OS [10]; 1 nM) [%] | cell viability (U2OS [10]; 10 nM) [%] | cell viability (U2OS [10]; 100 nM) [%] | cell viability (U2OS [10]; 1000 nM) [%] | cell viability (U2OS [10]; 10000 nM) [%] | relative viability EC50 (HepG2 [11]) [µM] | relative viability EC50 (Calu-3 [12]) [µM] | relative viability EC50 (Caco-2 [13]) [µM] | relative viability EC50 (Vero E6 [14]) [µM] | relative viability EC50 (U2OS [15]) [µM]
1 | OC[C@H]1O[C@H](O)C[C@@H](O)[C@@H]1O [2-deoxyglucose] | 0 | 0 | 0 | 0 | 0 | 93.2 | 96 | 97.3 | 106 | 97.4 | 108 | 98.9 | 111 | 100 | 95.5 | 102 | 66.9 | 105 | 86.9 | 101 | 93.4 | 102 | 90.6 | 100 | 110 | 100 | 102 | 101 | 99.4 | 98 | > 10 | > 10 | > 10 | > 10 | > 10
2 | Clc1cccc(-c2nnnn2Cc2cccnc2)c1Cl | 0 | 0 | 0 | 0 | 0 | 101 | 97.5 | 105 | 101 | 103 | 99.9 | 105 | 96.2 | 98.2 | 97.2 | 97.6 | 104 | 99.1 | 98.4 | 91.1 | 106 | 103 | 104 | 99.2 | 102 | 97 | 95.9 | 94.2 | 99.3 | 94.9 | > 10 | > 10 | > 10 | > 10 | > 10
3 | COc1ccc(NS(=O)(=O)c2sc3ccc(Cl)cc3c2C)cc1N1CCNCC1 | 0 | 0 | 0 | 0 | 0 | 108 | 104 | 106 | 109 | 87.4 | 104 | 105 | 108 | 105 | 98.1 | 98.9 | 98.7 | 104 | 102 | 96.1 | 93.3 | 98 | 97.6 | 94.4 | 103 | 99.9 | 96 | 97.2 | 98.5 | 94.5 | > 10 | > 10 | > 10 | > 10 | > 10
4 | CC(C)n1nc(-c2ccc3oc(N)nc3c2)c2c(N)ncnc21 [MLN0128] | 24.6 | 27.5 | 23.2 | 19.7 | 24.4 | 106 | 91.9 | 32.4 | 26.6 | 12.9 | 88.6 | 61.2 | 31.5 | 28.4 | 22.8 | 102 | 72 | 45.2 | 26.1 | 20.1 | 97.9 | 93.5 | 48.7 | 35.6 | 16.5 | 100 | 92.1 | 35 | 18.4 | 12 | 0.0449 | 0.0095 | 0.0309 | 0.0855 | 0.049
5 | O=C(O)c1ccccc1NC(=O)N1CCC(c2ccccc2C(F)(F)F)CC1 [A-1120] | 0 | 0 | 0.6 | 0 | 0 | 88.2 | 96.1 | 107 | 103 | 108 | 102 | 96.5 | 100 | 94.1 | 106 | 100 | 93.2 | 98.4 | 96.8 | 84.2 | 101 | 100 | 93.1 | 95.4 | 93.5 | 104 | 104 | 102 | 100 | 98.7 | > 10 | > 10 | > 10 | > 10 | > 10
6 | COC(=O)Nc1ccc2[nH]cc(CCNC(C)=O)c2c1 | 0 | 0 | 0 | 0 | 0 | 102 | 94.6 | 98.3 | 96.4 | 91 | 103 | 96.6 | 98.1 | 97.8 | 97.8 | 96.3 | 95.8 | 94.6 | 98.9 | 105 | 99 | 102 | 103 | 95.3 | 99 | 98.2 | 104 | 98 | 97.2 | 96.6 | > 10 | > 10 | > 10 | > 10 | > 10
7 | Nc1c(-c2cccc(C(F)(F)F)c2)nsc1C(=O)O [amflutizole] | 0 | 0 | 0 | 0 | 0 | 97.1 | 100 | 92.1 | 108 | 96.9 | 104 | 94.1 | 104 | 97 | 104 | 96.2 | 96.6 | 99.1 | 99.1 | 107 | 96.8 | 97.8 | 97.7 | 99.1 | 113 | 101 | 99.5 | 103 | 96.9 | 98.1 | > 10 | > 10 | > 10 | > 10 | > 10
8 | CC(C)NC[C@@H](O)c1ccc(O)c(O)c1 (racemic) [isoprenaline] | 0 | 0 | 0 | 0.4 | 0 | 109 | 98.6 | 96.5 | 100 | 101 | 93.6 | 104 | 94.4 | 92.3 | 98.2 | 96.5 | 90 | 89 | 92.9 | 93.9 | 101 | 97.6 | 101 | 107 | 79.8 | 96.8 | 98.9 | 95.5 | 99.7 | 103 | > 10 | > 10 | > 10 | > 10 | > 10
9 | CS(=O)(=O)c1ccc(Cn2c3c(c4cc(F)cc(F)c42)CCCC3CC(=O)O)cc1 (centres undefined) | 0 | 0 | 0 | 0 | 0 | 108 | 91 | 97.3 | 95.6 | 94 | 99.7 | 98.4 | 95.3 | 103 | 100 | 97.6 | 96.4 | 96.5 | 96 | 97.7 | 98 | 101 | 100 | 99.1 | 95.4 | 93.1 | 97.2 | 93.5 | 97.1 | 97.6 | > 10 | > 10 | > 10 | > 10 | > 10
10 | CC1(C)O[C@H]2CC(=O)OC[C@]23[C@H]2CC[C@@]4(C)[C@H](c5ccoc5)OC(=O)[C@H]5O[C@]54[C@]2(C)C(=O)C[C@@H]13 [limonin] | 0 | 0 | 0 | 0 | 0 | 102 | 105 | 91.5 | 111 | 97.2 | 104 | 89.5 | 109 | 99.6 | 102 | 97.5 | 95.8 | 106 | 98.5 | 105 | 97.1 | 97.1 | 93.7 | 98.6 | 104 | 95.6 | 98.6 | 107 | 99 | 100 | > 10 | > 10 | > 10 | > 10 | > 10
11 | COc1cc(SC)ccc1C(=O)N1CCC(Cc2ccccc2)CC1 [JX-401] | 0 | 0 | 0 | 0 |  | 104 | 110 | 99.9 | 97.7 | 106 | 99.4 | 114 | 97.5 | 103 | 97.3 | 95.5 | 95.9 | 90.9 | 99 | 94.5 | 101 | 98.6 | 99.8 | 97.6 | 94.8 |  |  |  |  |  | > 10 | > 10 | > 10 | > 10 | 
12 | Clc1ccc(COC(Cn2ccnc2)c2ccc(Cl)cc2Cl)c(Cl)c1 (centres undefined) [miconazole] | 1.5 | 0.5 | 2.4 | 0 | 0 | 97.6 | 109 | 103 | 96.2 | 75.5 | 101 | 98.8 | 102 | 91.6 | 87.1 | 96.3 | 98 | 96.2 | 85.9 | 72.1 | 106 | 106 | 101 | 102 | 97.2 | 95.5 | 94.9 | 102 | 94.2 | 92.4 | > 10 | > 10 |  | > 10 | > 10
13 | Oc1c(I)cc(I)c(O)c1I [riodoxol] | 0 | 0 | 0 | 0 |  | 97.2 | 91.1 | 101 | 93.2 | 96.9 | 103 | 95.1 | 103 | 104 | 98.5 | 94.9 | 93.8 | 98.1 | 93.5 | 104 | 101 | 99.3 | 99.6 | 101 | 94.6 |  |  |  |  |  | > 10 | > 10 | > 10 | > 10 | 
14 | O=c1cc(-c2ccc(O)cc2)oc2cc(O)cc(O)c12 [apigenin] | 0 | 0 | 0 | 0 |  | 92.8 | 105 | 97.7 | 102 | 94 | 104 | 103 | 101 | 99.3 | 94.7 | 93.9 | 94.2 | 105 | 94.8 | 90.4 | 101 | 101 | 101 | 95.2 | 92 |  |  |  |  |  | > 10 | > 10 | > 10 | > 10 | 
15 | CCCN(CCC)CCc1cccc2c1CC(=O)N2 [ropinirole] | 0 | 0 | 0 | 0 |  | 99.1 | 100 | 87.7 | 103 | 104 | 92.9 | 106 | 99.7 | 89.8 | 103 | 97.8 | 108 | 100 | 104 | 105 | 100 | 101 | 101 | 99.3 | 96.3 |  |  |  |  |  | > 10 | > 10 | > 10 | > 10 | 
16 | CNC(C)(C)Cc1ccccc1 [mephentermine] | 0 | 0 | 0 | 0 |  | 102 | 99.6 | 106 | 104 | 91.4 | 101 | 97.4 | 95.5 | 102 | 99.8 | 97.1 | 105 | 104 | 106 | 96.8 | 108 | 97.3 | 97 | 105 | 104 |  |  |  |  |  | > 10 | > 10 | > 10 | > 10 | 

From the supplement of paper PMC13380429
